These results are taken from EP4512396A1, “TARGETED COVALENT INHIBITORS FOR CARBONIC ANHYDRASES” (Vilnius University, priority 2023, dated 2025).

One assay concerns CAIX. Nature of the assay: stopped-flow CO2 hydration assay before and after dialysis (irreversible enzyme inactivation). Format: biochemical, human. Conditions: for catalytic activity of CAIX after 32 hours of dialysis: […] CAIX incubated 2 h with 15 µM AV19-37 or 100 µM AV19-36, dialyzed in Tris buffer pH 7.
The target in assay [1] is T1, CAIII (Homo sapiens, UniProt P07451). Nature of the assay: fluorescent thermal shift assay (FTSA). It is filed as binding.
T1 sequence (P07451 whole entry): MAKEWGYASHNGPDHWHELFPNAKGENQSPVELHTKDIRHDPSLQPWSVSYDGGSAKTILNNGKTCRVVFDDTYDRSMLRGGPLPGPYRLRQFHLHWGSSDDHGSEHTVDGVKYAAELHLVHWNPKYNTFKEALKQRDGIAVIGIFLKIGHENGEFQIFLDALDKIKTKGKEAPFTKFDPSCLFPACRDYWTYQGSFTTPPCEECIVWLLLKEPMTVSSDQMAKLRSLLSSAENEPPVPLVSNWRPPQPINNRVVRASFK
The target in a further assay is CA VB (Homo sapiens, UniProt Q9Y2D0). As to the kind of experiment: fluorescent thermal shift assay (FTSA). Format: binding. To be noted: FTSA at 37 °C and pH 7.0, read-out: Kd_app.
Sequence of CA VB (Q9Y2D0 34-317): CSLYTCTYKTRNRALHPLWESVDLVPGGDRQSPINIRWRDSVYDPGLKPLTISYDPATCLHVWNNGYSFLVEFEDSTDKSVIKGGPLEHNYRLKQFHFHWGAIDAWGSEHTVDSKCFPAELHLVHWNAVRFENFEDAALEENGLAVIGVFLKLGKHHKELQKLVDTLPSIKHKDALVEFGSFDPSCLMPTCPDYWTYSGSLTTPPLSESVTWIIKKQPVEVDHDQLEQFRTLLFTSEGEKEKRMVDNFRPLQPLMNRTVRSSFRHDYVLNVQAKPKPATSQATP
The next assay concerns the target CAVI (Homo sapiens, UniProt P23280). As to the kind of experiment: fluorescent thermal shift assay (FTSA). Conditions: FTSA at 37 °C and pH 7.0, read-out: Kd_app. It is filed as binding.
A further assay has as its target CAVII (Homo sapiens, UniProt P43166). Nature of the assay: fluorescent thermal shift assay (FTSA). Conditions: FTSA at 37 °C and pH 7.0, read-out: Kd_app. It is filed as binding.
In another assay the target is CAXII (Homo sapiens, UniProt O43570). Nature of the assay: fluorescent thermal shift assay (FTSA). Conditions: FTSA at 37 °C and pH 7.0, read-out: Kd_app. It is filed as binding.
Sequence of CAXII (O43570 25-354): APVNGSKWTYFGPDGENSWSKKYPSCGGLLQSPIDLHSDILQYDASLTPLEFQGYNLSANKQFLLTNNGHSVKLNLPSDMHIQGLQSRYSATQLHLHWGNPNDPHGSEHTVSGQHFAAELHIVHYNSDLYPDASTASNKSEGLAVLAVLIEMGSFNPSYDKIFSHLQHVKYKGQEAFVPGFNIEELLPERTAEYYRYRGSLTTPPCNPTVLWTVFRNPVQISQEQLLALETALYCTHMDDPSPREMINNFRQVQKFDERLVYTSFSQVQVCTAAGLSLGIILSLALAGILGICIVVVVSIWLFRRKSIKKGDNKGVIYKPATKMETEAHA
A further assay deals with CAXIII (Homo sapiens, UniProt Q8N1Q1). As to the kind of experiment: fluorescent thermal shift assay (FTSA). Format: binding. Conditions: FTSA at 37 °C and pH 7.0, read-out: Kd_app.
Sequence of CAXIII (Q8N1Q1 whole entry): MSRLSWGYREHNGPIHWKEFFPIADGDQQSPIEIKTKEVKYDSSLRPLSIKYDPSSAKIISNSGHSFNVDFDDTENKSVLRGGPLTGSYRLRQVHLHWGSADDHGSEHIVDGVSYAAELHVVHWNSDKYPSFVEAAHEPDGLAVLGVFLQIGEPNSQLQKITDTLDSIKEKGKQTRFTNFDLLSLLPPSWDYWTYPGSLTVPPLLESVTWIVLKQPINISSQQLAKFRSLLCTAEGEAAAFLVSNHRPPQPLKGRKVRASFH
The next assay addresses CA XIV (Homo sapiens, UniProt Q9ULX7). As to the kind of experiment: fluorescent thermal shift assay (FTSA). It is filed as binding. Conditions: FTSA at 37 °C and pH 7.0, read-out: Kd_app.
The target in a further assay is CA VA (Homo sapiens, UniProt P35218). To be noted: pH 7.
Sequence of CA VA (P35218 39-305): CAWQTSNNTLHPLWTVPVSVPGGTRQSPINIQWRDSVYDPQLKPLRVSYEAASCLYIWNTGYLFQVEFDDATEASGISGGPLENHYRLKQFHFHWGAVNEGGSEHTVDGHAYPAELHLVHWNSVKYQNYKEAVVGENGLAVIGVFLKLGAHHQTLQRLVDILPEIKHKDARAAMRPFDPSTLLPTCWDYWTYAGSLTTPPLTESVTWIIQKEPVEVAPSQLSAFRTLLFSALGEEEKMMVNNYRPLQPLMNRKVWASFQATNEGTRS
The target in another assay is CA IV (Homo sapiens, UniProt P22748). As to the kind of experiment: biochemical.
Sequence of CA IV (P22748 19-284): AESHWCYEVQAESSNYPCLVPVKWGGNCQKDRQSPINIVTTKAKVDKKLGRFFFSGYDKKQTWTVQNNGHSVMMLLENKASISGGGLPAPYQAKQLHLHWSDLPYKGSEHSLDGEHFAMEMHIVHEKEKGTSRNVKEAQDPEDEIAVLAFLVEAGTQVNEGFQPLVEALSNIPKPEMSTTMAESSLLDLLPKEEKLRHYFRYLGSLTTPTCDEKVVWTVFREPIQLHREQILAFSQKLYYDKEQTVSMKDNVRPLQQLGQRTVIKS
Assay [2] concerns the target T1, CAIII. As to the kind of experiment: Q-TOF mass spectrometry of covalent binding. To be noted: CAIII in the presence of ligand.

Sequence of CAVII (P43166 whole entry): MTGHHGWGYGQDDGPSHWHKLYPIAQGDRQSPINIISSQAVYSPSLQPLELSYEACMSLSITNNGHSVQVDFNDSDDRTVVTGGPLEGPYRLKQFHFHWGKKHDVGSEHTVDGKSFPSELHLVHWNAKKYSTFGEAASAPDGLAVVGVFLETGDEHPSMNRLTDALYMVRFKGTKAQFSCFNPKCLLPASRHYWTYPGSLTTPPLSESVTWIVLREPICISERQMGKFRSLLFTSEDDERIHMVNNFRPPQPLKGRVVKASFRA
Sequence of CAVI (P23280 21-290 limits assumed): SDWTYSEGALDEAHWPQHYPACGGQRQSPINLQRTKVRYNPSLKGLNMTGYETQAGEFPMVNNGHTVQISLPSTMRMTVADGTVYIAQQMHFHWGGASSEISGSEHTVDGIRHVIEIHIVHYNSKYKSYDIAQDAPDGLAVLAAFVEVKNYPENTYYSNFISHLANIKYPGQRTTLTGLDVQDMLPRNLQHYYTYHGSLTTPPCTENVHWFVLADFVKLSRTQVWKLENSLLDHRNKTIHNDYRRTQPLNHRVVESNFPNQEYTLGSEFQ
Sequence of CA XIV (Q9ULX7 16-337): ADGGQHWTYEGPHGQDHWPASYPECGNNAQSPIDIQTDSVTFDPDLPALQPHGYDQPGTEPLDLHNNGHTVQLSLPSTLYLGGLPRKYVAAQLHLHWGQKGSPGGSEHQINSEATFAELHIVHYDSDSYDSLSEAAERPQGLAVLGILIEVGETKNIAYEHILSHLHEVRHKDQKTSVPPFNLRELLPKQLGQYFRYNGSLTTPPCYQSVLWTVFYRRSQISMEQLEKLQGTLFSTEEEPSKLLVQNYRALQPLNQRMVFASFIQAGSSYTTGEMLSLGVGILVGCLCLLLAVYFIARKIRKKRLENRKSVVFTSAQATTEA

With `CC(=O)OCCSc1c(F)c(F)c(S(N)(=O)=O)c(F)c1F` [AV19-36, 2-((2,3,5,6-tetrafluoro-4-sulfamoylphenyl)thio)ethyl acetate], in the assay with CAIX, the “catalytic activity of CAIX after 32 hours of dialysis” value is given as “partially restored its catalytic activity”.
`NS(=O)(=O)c1c(F)c(F)c(S(=O)(=O)CCOC(=O)Cc2ccccc2)c(F)c1F` [AV21-25, 2-((2,3,5,6-tetrafluoro-4-sulfamoylphenyl)sulfonyl)ethyl 2-phenylacetate]: the Kd on CAIII [1] worked out at 18000 nM; at CA VB it was 0.017 nM; at CAVI, 0.36 nM; on CAVII it was 0.83 nM; on CAXII, 0.072 nM; at CAXIII it was 0.012 nM. The Kd is 0.28 nM on CA XIV, 2.5 nM at CA VA and 45 nM on CA IV.
For `CC(=O)OCCS(=O)(=O)c1c(F)c(F)c(S(N)(=O)=O)c(F)c1NC1CCCCCCC1` [AV19-37, 2-((2-(cyclooctylamino)-3,5,6-trifluoro-4-sulfamoylphenyl)sulfonyl)ethyl acetate], the “catalytic activity of CAIX after 32 hours of dialysis” value in the assay on CAIX was “not restored”. Further, in the assay with CAIX ([…] CAIX, 15 µM AV19-37, CO2 hydration, 25 °C, pH 7.5), the “catalytic activity of CAIX after 2 hours of incubation with compound” value was “lost its catalytic activity”. Also, the “covalent modification by MS” value on CAIII [2] is listed as “did not show a covalent modification”.
